Test results taken from the supplement of paper PMC4862054.

Tests used:
Settings in all cases: incubation time: 72 h
BT-474 [1] = assay: normalised response (% of control), CellTox Green; higher = less cell death (100 = DMSO, 0 = benzethonium chloride kill control)
Procedure, shortened: (§1)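 After 72 h with compound in 384-well plates, breast cancer cell lines seeded as 20 µl suspension were read for CellTox Green fluorescence at 485/520 nm. CellTiter-Glo luminescence was then read after 10 min at room temperature. Compound was present at 5 concentrations in 10-fold steps over a 10,000-fold range set per compound, and plates were normalised to 0.1 % DMSO (100) and a positive kill control (0). Values are normalised signals, each at a single concentration.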

BT-549 [2] = assay: as above
Procedure, shortened: as §1

CAL-120 [3] = assay: as above
Procedure, shortened: as §1

CAL-148 [4] = assay: as above
Procedure, shortened: as §1

CAL-51 [5] = assay: as above
Procedure, shortened: as §1

CAL-85-1 [6] = assay: as above
Procedure, shortened: as §1

DU-4475 [7] = assay: as above
Procedure, shortened: as §1

HCC1143 [8] = assay: as above
Procedure, shortened: as §1

HCC1599 [9] = assay: as above
Procedure, shortened: as §1

HDQ-P1 [10] = assay: as above
Procedure, shortened: as §1

Hs578T [11] = assay: as above
Procedure, shortened: as §1

MCF-10A [12] = assay: as above
Procedure, shortened: as §1

MDA-MB-231 [13] = assay: as above
Procedure, shortened: as §1

MDA-MB-436 [14] = assay: as above
Procedure, shortened: as §1

MDA-MB-453 [15] = assay: as above
Procedure, shortened: as §1

MDA-MB-468 [16] = assay: as above
Procedure, shortened: as §1

MFM-223 [17] = assay: as above
Procedure, shortened: as §1

BT-474 [18] = assay: normalised response (% of control), CellTiter-Glo; higher = more viable cells (100 = DMSO, 0 = benzethonium chloride kill control)
Experimental: (§2)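 DSRT, 72 h incubation, CellTox Green / CellTiter-Glo readout. Signal is normalised to DMSO and benzethonium chloride controls. Value is the normalised response at the highest dose.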

BT-549 [19] = assay: as above
Experimental: as §2

CAL-120 [20] = assay: as above
Experimental: as §2

CAL-148 [21] = assay: as above
Experimental: as §2

CAL-51 [22] = assay: as above
Experimental: as §2

CAL-85-1 [23] = assay: as above
Experimental: as §2

DU-4475 [24] = assay: as above
Experimental: as §2

HCC1143 [25] = assay: as above
Experimental: as §2

HCC1599 [26] = assay: as above
Experimental: as §2

HCC1937 [27] = assay: as above
Experimental: as §2

HDQ-P1 [28] = assay: as above
Experimental: as §2

Hs578T [29] = assay: as above
Experimental: as §2

MCF-10A [30] = assay: as above
Experimental: as §2

MDA-MB-231 [31] = assay: as above
Experimental: as §2

MDA-MB-436 [32] = assay: as above
Experimental: as §2

MDA-MB-453 [33] = assay: as above
Experimental: as §2

MDA-MB-468 [34] = assay: as above
Experimental: as §2

MFM-223 [35] = assay: as above
Experimental: as §2

SK-BR-3 = assay: as above
Experimental: as §2

HCC1937 [36] = assay: normalised response (% of control), CellTox Green; higher = less cell death (100 = DMSO, 0 = benzethonium chloride kill control)
Procedure, shortened: as §1

Cc1ccc(NC(=O)c2ccc(CN3CCN(C)CC3)cc2)cc1Nc1nccc(-c2cccnc2)n1 [Imatinib] (10000 nM)
normalised response (BT-474 [1]): 96.6% | normalised response (BT-549 [2]): 92.7% | normalised response (CAL-120 [3]): 101% | normalised response (CAL-148 [4]): 103% | normalised response (CAL-51 [5]): 93.1% | normalised response (CAL-85-1 [6]): 84.2% | normalised response (DU-4475 [7]): 97.9% | normalised response (HCC1143 [8]): 91.2% | normalised response (HCC1599 [9]): 94.8% | normalised response (HDQ-P1 [10]): 74.4% | normalised response (Hs578T [11]): 76.1% | normalised response (MCF-10A [12]): 65.1% | normalised response (MDA-MB-231 [13]): 114% | normalised response (MDA-MB-436 [14]): 87.4% | normalised response (MDA-MB-453 [15]): -13.7% | normalised response (MDA-MB-468 [16]): 113% | normalised response (MFM-223 [17]): 99.9% | normalised response (BT-474 [18]): 87.4% | normalised response (BT-549 [19]): 89.5% | normalised response (CAL-120 [20]): 108% | normalised response (CAL-148 [21]): 116% | normalised response (CAL-51 [22]): 76.5% | normalised response (CAL-85-1 [23]): 85.7% | normalised response (DU-4475 [24]): 107% | normalised response (HCC1143 [25]): 91.3% | normalised response (HCC1599 [26]): 71.6% | normalised response (HCC1937 [27]): 83.6% | normalised response (HDQ-P1 [28]): 111% | normalised response (Hs578T [29]): 98.3% | normalised response (MCF-10A [30]): 128% | normalised response (MDA-MB-231 [31]): 94.8% | normalised response (MDA-MB-436 [32]): 94.3% | normalised response (MDA-MB-453 [33]): 73.4% | normalised response (MDA-MB-468 [34]): 86.8% | normalised response (MFM-223 [35]): 87.7% | normalised response (SK-BR-3): 84.7%

Nc1ncnc2c1c(COc1cccc(Cl)c1)nn2C1CCOCC1 (10000 nM)
normalised response (BT-474 [1]): 106% | normalised response (BT-549 [2]): 110% | normalised response (CAL-120 [3]): 109% | normalised response (CAL-148 [4]): 96% | normalised response (CAL-51 [5]): 109% | normalised response (CAL-85-1 [6]): 91.3% | normalised response (DU-4475 [7]): 103% | normalised response (HCC1143 [8]): 104% | normalised response (HCC1599 [9]): 106% | normalised response (HCC1937 [36]): 103% | normalised response (HDQ-P1 [10]): 109% | normalised response (Hs578T [11]): 110% | normalised response (MCF-10A [12]): 86.3% | normalised response (MDA-MB-231 [13]): 106% | normalised response (MDA-MB-436 [14]): 79.2% | normalised response (MDA-MB-453 [15]): 104% | normalised response (MDA-MB-468 [16]): 112% | normalised response (MFM-223 [17]): 98.8% | normalised response (BT-474 [18]): 86.8% | normalised response (BT-549 [19]): 88.1% | normalised response (CAL-120 [20]): 107% | normalised response (CAL-148 [21]): 113% | normalised response (CAL-51 [22]): 101% | normalised response (CAL-85-1 [23]): 90.2% | normalised response (DU-4475 [24]): 101% | normalised response (HCC1143 [25]): 98.2% | normalised response (HCC1599 [26]): 98.6% | normalised response (HCC1937 [27]): 95.3% | normalised response (HDQ-P1 [28]): 92.2% | normalised response (Hs578T [29]): 100% | normalised response (MCF-10A [30]): 89.3% | normalised response (MDA-MB-231 [31]): 89.6% | normalised response (MDA-MB-436 [32]): 89.3% | normalised response (MDA-MB-453 [33]): 88.3% | normalised response (MDA-MB-468 [34]): 92.3% | normalised response (MFM-223 [35]): 96.8% | normalised response (SK-BR-3): 102%

COc1ccc(-c2ccc3c(N4CCOC[C@@H]4C)nc(N4CCOC[C@@H]4C)nc3n2)cc1CO [AZD8055] (10000 nM)
normalised response (BT-474 [1]): 48% | normalised response (BT-549 [2]): 111% | normalised response (CAL-120 [3]): 102% | normalised response (CAL-148 [4]): 56.6% | normalised response (CAL-51 [5]): 76.6% | normalised response (CAL-85-1 [6]): 88.1% | normalised response (DU-4475 [7]): 82.6% | normalised response (HCC1143 [8]): -36.9% | normalised response (HCC1599 [9]): 86.4% | normalised response (HCC1937 [36]): 97.3% | normalised response (HDQ-P1 [10]): 99.7% | normalised response (Hs578T [11]): 94.8% | normalised response (MCF-10A [12]): 76.3% | normalised response (MDA-MB-231 [13]): 97.3% | normalised response (MDA-MB-436 [14]): 68.7% | normalised response (MDA-MB-453 [15]): 92.3% | normalised response (MDA-MB-468 [16]): 27.8% | normalised response (MFM-223 [17]): 83.7% | normalised response (BT-474 [18]): 42.5% | normalised response (BT-549 [19]): 19.9% | normalised response (CAL-120 [20]): 18.8% | normalised response (CAL-148 [21]): 14.6% | normalised response (CAL-51 [22]): 15.9% | normalised response (CAL-85-1 [23]): 27.6% | normalised response (DU-4475 [24]): 15.3% | normalised response (HCC1143 [25]): 25.3% | normalised response (HCC1599 [26]): 77.3% | normalised response (HCC1937 [27]): 38.3% | normalised response (HDQ-P1 [28]): 29% | normalised response (Hs578T [29]): 22.4% | normalised response (MCF-10A [30]): 21.4% | normalised response (MDA-MB-231 [31]): 33.5% | normalised response (MDA-MB-436 [32]): 46.4% | normalised response (MDA-MB-453 [33]): 27.2% | normalised response (MDA-MB-468 [34]): 21% | normalised response (MFM-223 [35]): 26.4% | normalised response (SK-BR-3): 18.2%

CN(C)CCN1C(=O)c2cccc3cc(N)cc(c23)C1=O [Amonafide] (10000 nM)
normalised response (BT-474 [1]): 97.8% | normalised response (BT-549 [2]): 122% | normalised response (CAL-120 [3]): 101% | normalised response (CAL-148 [4]): 32.8% | normalised response (CAL-51 [5]): 23.1% | normalised response (CAL-85-1 [6]): 63.4% | normalised response (DU-4475 [7]): 83.8% | normalised response (HCC1143 [8]): 93.5% | normalised response (HCC1599 [9]): 98% | normalised response (HCC1937 [36]): 120% | normalised response (HDQ-P1 [10]): 87% | normalised response (Hs578T [11]): 114% | normalised response (MCF-10A [12]): 77% | normalised response (MDA-MB-231 [13]): 111% | normalised response (MDA-MB-436 [14]): 63.8% | normalised response (MDA-MB-453 [15]): 112% | normalised response (MDA-MB-468 [16]): 125% | normalised response (MFM-223 [17]): 100% | normalised response (BT-474 [18]): 43.9% | normalised response (BT-549 [19]): 47% | normalised response (CAL-120 [20]): 52.3% | normalised response (CAL-148 [21]): 25.4% | normalised response (CAL-51 [22]): 17.7% | normalised response (CAL-85-1 [23]): 47.6% | normalised response (DU-4475 [24]): 14.6% | normalised response (HCC1143 [25]): 52.3% | normalised response (HCC1599 [26]): 57.2% | normalised response (HCC1937 [27]): 55.7% | normalised response (HDQ-P1 [28]): 53.1% | normalised response (Hs578T [29]): 61.7% | normalised response (MCF-10A [30]): 45% | normalised response (MDA-MB-231 [31]): 39.2% | normalised response (MDA-MB-436 [32]): 38.8% | normalised response (MDA-MB-453 [33]): 77.8% | normalised response (MDA-MB-468 [34]): 43.5% | normalised response (MFM-223 [35]): 69.7% | normalised response (SK-BR-3): 31.9%
